One experiment deals with protein N-glycosylation. To be noted: pre-treatment of cells with β-antagonist; cited from earlier work.
For experiment [1], the system named is capillary endothelial cells. To be noted: BANERJEE et al. (1993); cited from earlier work.
In experiment [2] the test system is bovine adrenal medullary microvascular endothelial cells. Nature of the experiment: Cell cycle and apoptosis by flow cytometry (propidium iodide). The class given is cell-based. On the procedure: Regarding flow cytometry, assessment of the cell cycle was determined by propidium iodide staining of fixed cell nuclei followed by flow cytometry in a FacSort (Beckton Dickinson) according to the method of Krishan (1975) as modified by Vindelov (1977), as discussed in KRISHAN, “Rapid Flow Cytofluorometric Analysis of Mammalian Cell Cycle by Propidium Iodide Staining”, J. Cell Biol., 66:188-193 (1975); and VINDELOV, “Flow Cytometric Analysis of Nuclear DNA in Cells from Solid Tumors and Cell Suspensions”, Virchows Arch (B), 24:227-231(1977), the disclosures of which are herein incorporated by reference in their entireties. Briefly, cells were trypsinized, and pelleted by centrifugation at 900 rpm in a bench top centrifuge (Sorvall T6000B). After washing twice with PBS the cell pellet was resuspended in propidium iodide-buffer (PI-buffer; 10 mM Tris-HCl, pH 8.0 containing 10 mM NaCl, 0.7 μM PI, 700 units/liter RNase, and 0.1% (v/v) NP-40), kept in ice for 30 minutes and then fixed with 2% (v/v) paraformaldehyde. After FacSort calibration, 3000 events were counted per sample. Acquisition and analysis of data were carried out by using Cell Quest flow cytometry software (Macintosh-based). Gates: M1=G0/G1, M2=S, M3=G2+M, M4=apoptosis.
Proliferation and Differentiation of Capillary Endothelial Cells: 2.0×10^4 cells were seeded per well in 24-well clusters in 1 ml complete EMEM containing 10% (v/v) serum and allowed to grow for 72 hours. Media were removed and the cells were washed twice with phosphate-buffer saline, pH 7.4 (PBS). Cells were synchronized by incubating for 48 hours in 2 mM hydroxyurea in serum-free EMEM with glutamine (2 mM) and one-third of penicillin-streptomycin used in a regular culture condition, followed by incubating 24 hours in serum-free EMEM, as discussed in CAO et al., “Modified Method of Mammalian Cell Synchronization Improves Yield and Degree of Synchronization”, Exp. Cell Res., 193:405-410 (1991), the disclosure of which is herein incorporated by reference in its entirety. Cells were routinely monitored by light microscopy. For proliferation assay, cells were trypsinized and counted in a hemacytometer. Viability of cells was determined by trypan blue (0.4% (v/v)) exclusion. Statistical analysis was carried out by StatView II software (Macintosh). Quantitation of cellular differentiation was carried out by observing under a Nikon AlphaShot inverted microscope, and counting the number of capillary lumen-like structures in five randomly selected fields per sample. The results were expressed as percent of its corresponding control after normalization of cell numbers. Analysis of Cell Cycle by Flow Cytometry: Assessment of the cell cycle was determined by propidium iodide staining of fixed cell nuclei followed by flow cytometry in a FacSort (Beckton Dickinson) according to the method of Krishan (1975) as modified by Vindelov (1977), as discussed in KRISHAN, “Rapid Flow Cytometric Analysis of Mammalian Cell Cycle by Propidium Iodide Staining”, J. Cell Biol. 66:188-195 (1975); and VINDELOV, “Flow Cytometric Analysis of Nuclear DNA in Cells from Solid Tumors and Cell Suspensions”, Virchows Arch (B), 24:227-231 (1977), the disclosures of which are herein incorporated by reference in their entireties. Briefly, cells were trypsinized, and pelleted by centrifugation at 900 rpm in a bench top centrifuge (Sorvall T6000B). After washing twice with PBS the cell pellet was resuspended in propidium iodide-buffer (PI-buffer; 10 mM Tris-HCl, pH 8.0 containing 10 mM NaCl, 0.7 μM PI, 700 units/liter RNase, and 0.1% (v/v) NP-40), kept in ice for 30 minutes and then fixed with 2% (v/v) paraformaldehyde. After FacSort calibration, 3000 events were counted per sample. Acquisition and analysis of data were carried out by using Cell Quest flow cytometry software (Macintosh-based). Gates: M1 G0/G1, M2=S, M3=G2+M, M4=apoptosis.

Experiment [3] has the same test system. In words: Capillary endothelial cell growth and proliferation (cell count in hemacytometer). The class given is cell-based. As for the experimental part:
Cells in the amount of 2.0×10^4 were seeded per well in 24-well clusters in 1 ml complete EMEM containing 10% (v/v) serum and allowed to grow for 72 hours. Media were removed and the cells were washed twice with phosphate-buffer saline, pH 7.4 (PBS). Cells were synchronized by incubating for 48 hours in 2 mM hydroxyurea in serum-free EMEM with glutamine (2 mM) and one-third of penicillin-streptomycin used in a regular culture condition, followed by incubating 24 hours in serum-free EMEM, as discussed in CAO et al., “Modified Method of Mammalian Cell Synchronization Improves Yield and Degree of Synchronization”, Exp. Cell Res., 193:405-410 (1991), the disclosure of which is herein incorporated by reference in its entirety.
For proliferation assay, cells were trypsinized and counted in a hemacytometer. Viability of cells was determined by trypan blue (0.4% (v/v)) exclusion. Statistical analysis was carried out by StatView II software (Macintosh). Quantitation of cellular differentiation was carried out by observing under a Nikon AlphaShot inverted microscope, and counting the number of capillary lumen-like structures in five randomly selected fields per sample.
Synchronized cells, as described in Example 1, were cultured at 37° C. in complete EMEM containing fetal bovine serum (1% (v/v), 2% (v/v), or 10% (v/v), or complete EMEM with 2% (v/v) fetal bovine serum containing 1 ng/ml −100 ng/ml of bFGF/FGF-2, or containing 0.5 μg/ml to 5.0 μg/ml tunicamycin (lot number 10922120-07 from Boehringer-Mannheim, Indianapolis, Ind.). In each case, the cellular growth and proliferation was monitored by trypan blue exclusion, by counting the cell number, and by their ability to process through the cell cycle by flow cytometry.
Proliferation and Differentiation of Capillary Endothelial Cells: 2.0×10^4 cells were seeded per well in 24-well clusters in 1 ml complete EMEM containing 10% (v/v) serum and allowed to grow for 72 hours. Media were removed and the cells were washed twice with phosphate-buffer saline, pH 7.4 (PBS). […] Cells were routinely monitored by light microscopy. For proliferation assay, cells were trypsinized and counted in a hemacytometer. Viability of cells was determined by trypan blue (0.4% (v/v)) exclusion. […] Quantitation of cellular differentiation was carried out by observing under a Nikon AlphaShot inverted microscope, and counting the number of capillary lumen-like structures in five randomly selected fields per sample. The results were expressed as percent of its corresponding control after normalization of cell numbers. Analysis of Cell Cycle by Flow Cytometry: Assessment of the cell cycle was determined by propidium iodide staining of fixed cell nuclei followed by flow cytometry in a FacSort (Beckton Dickinson) according to the method of Krishan (1975) as modified by Vindelov (1977), as discussed in KRISHAN, “Rapid Flow Cytometric Analysis of Mammalian Cell Cycle by Propidium Iodide Staining”, J. Cell Biol. 66:188-195 (1975); and VINDELOV, “Flow Cytometric Analysis of Nuclear DNA in Cells from Solid Tumors and Cell Suspensions”, Virchows Arch (B), 24:227-231 (1977), the disclosures of which are herein incorporated by reference in their entireties. […]

The mark [4] stands for this setting: cycloheximide replacing tunicamycin (data not shown).

Here are results for 5 compounds from patent publication US7361643B2, “Methods for inhibiting angiogenesis” (University of Puerto Rico, priority 2000, dated 2008).

Turning to `CC(C)NCC(O)COc1ccc(CC(N)=O)cc1` (stereo not drawn) [atenolol], the “protein N-glycosylation” value with protein N-glycosylation is recorded as “reduced protein N-glycosylation substantially”.
Consider Amphomycin, for which, in experiment [1], the endothelial cell proliferation entry was “inhibits endothelial cell proliferation in a dose-dependent manner”.
In the case of `C[C@@H]1C[C@@H]([C@H](O)CC2CC(=O)NC(=O)C2)C(=O)[C@@H](C)C1` [cycloheximide], the induction of apoptosis result in experiment [2] (setting [4]) is “did not induce apoptosis”. In experiment [3] (setting [4]), the cell proliferation entry is “inhibited the cell proliferation in a time- and dose-dependent manner”.
For “bFGF/FGF-2: basic fibroblast growth factor”, the “time to complete the cell cycle” value in experiment [2] (bFGF/FGF-2 10 ng/ml-100 ng/ml (68 hours in 2% serum control)) was found to be 56 h. The “shortening of the G1 phase” value in experiment [2] (bFGF/FGF-2 10 ng/ml-100 ng/ml versus 2% serum) was 12 h. In experiment [3] (bFGF/FGF-2 10 ng/ml-100 ng/ml in 2% serum), the endothelial cell proliferation entry is “stimulated the endothelial cell proliferation over the controls”. In experiment [3] (bFGF/FGF-2 at stimulatory concentrations), the “reduction of the lag phase” value was approximately 24 h.
Consider `Cc1ccc(OCC(O)C(C)NC(C)C)c2c1CCC2` (stereo not drawn) [ICI-118,551], for which the “protein N-glycosylation” value in the experiment with protein N-glycosylation was “reduced protein N-glycosylation substantially”.
